This experiment has as its target T1, human bradykinin B1 receptor (Homo sapiens, UniProt P46663).
T1 construct: To upregulate expression of the B1 receptor the cells are treated with 100 units/ml of IL-1β; endogenous in cells; host or cells: WI-38 cells treated with 100 units/ml IL-1β for 3 hours
T1 sequence (P46663 1-353): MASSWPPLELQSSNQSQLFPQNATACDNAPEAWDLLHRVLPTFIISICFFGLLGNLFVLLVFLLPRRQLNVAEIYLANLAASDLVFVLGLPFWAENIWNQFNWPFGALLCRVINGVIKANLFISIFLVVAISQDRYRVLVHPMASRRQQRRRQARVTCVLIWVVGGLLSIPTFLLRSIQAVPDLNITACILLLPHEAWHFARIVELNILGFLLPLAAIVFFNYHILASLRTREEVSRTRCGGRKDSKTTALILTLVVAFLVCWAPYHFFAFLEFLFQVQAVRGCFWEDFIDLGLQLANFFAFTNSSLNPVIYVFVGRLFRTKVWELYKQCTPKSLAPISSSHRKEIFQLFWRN
The experiment is described as follows: Test I: Bradykinin Receptor Binding Assay ([3H]-desArg10kallidin displacement, IL-1β-treated WI-38 cells). The following applies: displacement of [3H]-desArg10kallidin, KI from IC50 by Cheng-Prussoff equation.

Where a SMILES comes first, the peptide text is derived from it. [ ]: non-standard residue; d: D form. Oic = O=C(O)[C@@H]1C[C@@H]2CCCC[C@@H]2N1; Hyp = O=C(O)[C@@H]1C[C@@H](O)CN1; dTic = O=C(O)[C@H]1Cc2ccccc2CN1; 2Thi = N[C@@H](Cc1cccs1)C(=O)O

Procedure: WI-38 cells are grown in Dulbecco's Modified Eagle Medium s supplemented with 1% non-essential amino acids, 2 mM L-glutamine, 100 IU/ml penicillin, 100 μg/ml streptomycin and 10% foetal calf serum. The cells are grown in 175 cm^2 tissue culture flasks and split approximately 1–2 times a week at a ratio of 1:2 using trypsin to detach the cells. WI-38 cells are plated onto 24 well plates at approximately 50,000 cells per well and grown overnight. To upregulate expression of the B1 receptor the cells are treated with 100 units/ml of IL-1β for 3 hours prior to the assay. The binding buffer is 10 mM HEPES in Hank's Balanced Salt solution pH 7.4 plus 1 mM phenanthroline and 0.14 mg/ml bacitracin. […] Non-specific binding is determined with 3 μM desArg^10kallidin. […] The cells are solubilised with 0.2% SDS and the amount of radioactivity in the samples determined by liquid scintillation counting. […]
Results are calculated by subtracting the value for non-specific binding from all values and calculating the amount of binding for each concentration of compound as a percentage of the specific binding with no compound. The IC50 values are calculated in ORIGIN using a logistic fit. KI values are calculated from the IC50 values using the Cheng-Prussoff equation (KI=IC50/(1+([RL]/Kd)) where [RL] is the radioligand concentration.

Regarding `O=C(O)CN(CCOc1ccc2c(c1)CCC2)S(=O)(=O)c1ccc(Br)cc1Cl` [Example 5, {(4-bromo-2-chloro-benzenesulfonyl)-[2-(indan-5-yloxy)-ethyl]-amino}-acetic acid], the Ki was approximately 300 nM. Consider `N=C(N)NCCC[C@@H](N)C(=O)N[C@@H](CCCNC(=N)N)C(=O)N1CCC[C@H]1C(=O)N1C[C@H](O)C[C@H]1C(=O)NCC(=O)N[C@@H](Cc1cccs1)C(=O)N[C@@H](CO)C(=O)N1Cc2ccccc2C[C@@H]1C(=O)N1[C@H](C(=O)O)C[C@@H]2CCCC[C@@H]21` [desArg^10HOE140, D-Arg-[Hyp^3, Thi^5, D-Tic^7, Oic^8]desArg^9 bradykinin] (H-[dR]RP[Hyp]G[2Thi]S[dTic][Oic]-OH; N-terminus and C-terminus assumed), for which the affinity corresponds to a Ki of 63 nM. That is a double-digit nanomolar value.

The Ki is a dissociation constant, usually derived from enzyme kinetics or from competition with a known ligand. Higher therefore signals a looser hold on the target.

These data come from US7109203B2, “Sulfonamide derivatives” (Novartis AG, priority 2001, dated 2006).
